Structures are written as SMILES.

The assay concerns the target T1, human Cystic Fibrosis Transmembrane Conductance Regulator (CFTR) harboring the ΔF508 mutation (Homo sapiens, UniProt P13569, DEL508-508).
T1 construct: expressed in transfected cells; host or cells: H441 carcinoma line (G418-selected)
Briefly: H441 cell ΔF508-CFTR-HRP cell surface assay (Emax and EC50). It counts as cell-based. The following applies: for Emax: NCI-H441, NA = Not active. From the text: Example 315: H441 Cell Emax and EC50 Two cell lines were used, the H441 carcinoma line and the CFHBE41o- (41o-) human bronchial epithelial line. Both cell lines expressed human Cystic Fibrosis Transmembrane Conductance Regulator (CFTR) harboring the ΔF508 mutation and with an in-frame fusion in CFTR extracellular loop 4 of Horse Radish Peroxidase (HRP) under control of the CMV promoter. In the presence of the HRP tag, ΔF508-CFTR transported to the cell surface was detectable upon addition of an HRP substrate (Luminata Forte). Both cell types were cultivated at 37° C. with CO2. […] For both cell types, the medium was changed every other day unless the culture was at low % confluence. Cells were used for the assays at 75% confluence. To a polypropylene (PP) 384-well plate, 15 pls DMSO was added to all wells in columns 1-22 and 24 (low Control). 15 μls of 260 μM VX809 (Lumacaftor), Selleckchem […], was added to column 23 wells (high Control). 15 pls of 10 mM test compound or VX809 (control) were added to wells of row A. Serial dilutions of Row A compound were performed 2×15 pls in rows A through 0 (15-point). A PP, 384-well plate containing the appropriate cell culture medium was prepared for each assay plate with 100 pls per well. For the doxycycline-induced 41o-cells, doxycycline for both the assay plate and the medium dilution plate was added at 0.0005 mg/ml to the medium. Both cell lines were plated for the assay at 30 pls per 384-well at 3.4×10 e^5 cells per ml ( 10K cells/well). H441 cells were plated on opaque, white, Corning plate 3704. 41o-cells were plated on collagen-coated opaque, white, Corning plate 356665. For 41o-cells, doxycycline was added to the medium. Using FX (Beckman) protocol, 10 pls diluted compound or medium was added per well to the Assay Plate as: 2 pls DMSO Dilution plate well was diluted in 100 pls of the Medium Dilution Plate well, mixed, and 10 pls was transferred to the Assay Plate. The final assay dilution series was 24.5, 12.3, 6.1, 3.1, 1.5, 0.8, 0.4, 0.2, 0.1, 0.05, 0.02, 0.01, 0.006, 0.003, 0.001 and 0 μM. The 41o-assay plates were incubated at 37° C. w/CO2, the H441 assay plates were incubated at 27° C. w/CO2, each overnight for two nights. After being brought to room temperature, the assay plate liquid was removed. 30 uls of Luminata Forte (Millipore ELLUF0100) was added per well and incubated at room temperature for 10 min. The plates were then read on a Topcount, protocol LumiMatti (CPS, luminescence). The data was analyzed for % of maximum, maximum VX809 signal, and EC50 using Pearl and SPEED tools.

T1 sequence (P13569 with tags, fused parts or gaps DEL508-508): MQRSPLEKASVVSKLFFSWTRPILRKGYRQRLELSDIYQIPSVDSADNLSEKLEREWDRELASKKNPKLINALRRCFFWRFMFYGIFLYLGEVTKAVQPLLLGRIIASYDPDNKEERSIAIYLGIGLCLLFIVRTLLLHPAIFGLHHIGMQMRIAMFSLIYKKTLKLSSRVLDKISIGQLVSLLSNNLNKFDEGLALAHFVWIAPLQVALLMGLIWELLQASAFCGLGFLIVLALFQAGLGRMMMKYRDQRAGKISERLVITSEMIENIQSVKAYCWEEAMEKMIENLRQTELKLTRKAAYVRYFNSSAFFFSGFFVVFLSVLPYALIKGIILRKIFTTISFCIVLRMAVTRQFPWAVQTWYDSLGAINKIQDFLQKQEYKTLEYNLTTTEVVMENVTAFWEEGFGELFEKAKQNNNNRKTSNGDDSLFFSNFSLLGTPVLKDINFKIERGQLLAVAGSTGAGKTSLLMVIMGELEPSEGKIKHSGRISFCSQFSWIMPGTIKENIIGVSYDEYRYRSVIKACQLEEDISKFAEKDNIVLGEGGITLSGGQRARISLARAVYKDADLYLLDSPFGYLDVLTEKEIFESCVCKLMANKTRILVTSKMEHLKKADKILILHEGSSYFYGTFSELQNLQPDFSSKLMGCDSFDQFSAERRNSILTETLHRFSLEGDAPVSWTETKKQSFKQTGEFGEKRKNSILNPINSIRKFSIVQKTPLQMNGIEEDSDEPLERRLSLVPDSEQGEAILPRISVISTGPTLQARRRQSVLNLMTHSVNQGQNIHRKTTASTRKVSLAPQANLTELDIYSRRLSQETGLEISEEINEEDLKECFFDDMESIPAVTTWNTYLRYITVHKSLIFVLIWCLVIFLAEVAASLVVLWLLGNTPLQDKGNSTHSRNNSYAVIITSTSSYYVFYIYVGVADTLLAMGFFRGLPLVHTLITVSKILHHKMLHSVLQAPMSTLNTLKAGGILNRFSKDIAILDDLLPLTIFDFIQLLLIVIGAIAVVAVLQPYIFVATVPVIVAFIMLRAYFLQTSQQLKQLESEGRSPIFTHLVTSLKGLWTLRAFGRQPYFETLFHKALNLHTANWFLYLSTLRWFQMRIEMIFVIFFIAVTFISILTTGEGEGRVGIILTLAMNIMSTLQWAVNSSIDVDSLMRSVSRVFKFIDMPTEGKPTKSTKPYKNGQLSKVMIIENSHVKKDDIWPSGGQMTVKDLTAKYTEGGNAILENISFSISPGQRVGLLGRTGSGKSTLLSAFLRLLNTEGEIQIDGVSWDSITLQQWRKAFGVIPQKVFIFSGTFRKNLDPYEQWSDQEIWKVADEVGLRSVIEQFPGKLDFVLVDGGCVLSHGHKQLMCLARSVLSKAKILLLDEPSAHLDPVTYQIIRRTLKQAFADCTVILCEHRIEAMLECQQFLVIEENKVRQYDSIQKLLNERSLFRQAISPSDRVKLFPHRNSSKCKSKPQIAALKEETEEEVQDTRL

In general, Emax refers to the size of the effect at its maximum, as opposed to the concentration needed. As to `CC(C)(C)[C@H](NC(=O)c1ccc2ccccc2c1OCC1CCC(CO)CC1)C(=O)O` (stereo partly drawn) [Example 29, (S)-2-(1-((4-(hydroxymethyl)cyclohexyl)methoxy)-2-naphthamido)-3,3-dimethylbutanoic Acid], the Emax stood at 27.8%.
By EC50 is commonly meant the concentration at which the effect is half-maximal. Higher therefore signals weaker potency. With `CC1([C@H](NC(=O)c2ccc3cc(F)ccc3c2OCc2ccc(OC(F)(F)F)cc2)C(=O)O)CC1` [Example 30, (S)-2-(6-fluoro-1-((4-(trifluoromethoxy)benzyl)oxy)-2-naphthamido)-2-(1-methylcyclopropyl)acetic Acid], the EC50 amounted to 2 µM and the Emax was found to be 57.5%.
For the compound `CCC(C)(C)[C@H](NC(=O)c1ccc2cc(OC)ccc2c1OCc1ccc(SC(F)(F)F)cc1)C(=O)O` [Example 32, (S)-2-(6-methoxy-1-((4-((trifluoromethyl)thio)benzyl)oxy)-2-naphthamido)-3,3-dimethylpentanoic Acid], the EC50 came out at 1.5 µM and the Emax was determined as 44.3%.
The like results for `CCC(C)(C)[C@H](NC(=O)c1ccc2cc(F)ccc2c1OCC1CCC(F)(F)CC1)C(=O)O` [Example 34, (S)-2-(1-((4,4-difluorocyclohexyl)methoxy)-6-fluoro-2-naphthamido)-3,3-dimethylpentanoic Acid] were, in that order, 3.8 µM and 78.4%.
The corresponding values for `COc1ccc2c(OCc3ccc(C(F)(F)F)cc3)c(C(=O)N[C@H](C(=O)O)C(C)(C)C)ccc2c1` [Example 38, (S)-2-(6-methoxy-1-((4-(trifluoromethyl)benzyl)oxy)-2-naphthamido)-3,3-dimethylbutanoic Acid] are 1.1 µM and 80.8%.
`CC1(C(NC(=O)c2ccc3ccccc3c2OC[C@H]2CC[C@@H](C(F)(F)F)CC2)C(=O)O)CCCCC1` (stereo partly shown) [Example 39, 2-(1-methylcyclohexyl)-2-(1-(((1s,4s)-4-(trifluoromethyl)cyclohexyl)methoxy)-2-naphthamido)acetic Acid]: the EC50 is 15.4 µM and the Emax came to 60.7%.
The corresponding values for `CC1(C(NC(=O)c2ccc3ccccc3c2OCc2ccc(S(C)(=O)=O)cc2)C(=O)O)CCCCC1` (stereo not shown) [Example 44, 2-(1-methylcyclohexyl)-2-(1-((4-(methylsulfonyl)benzyl)oxy)-2-naphthamido)acetic Acid] are 5.1 µM and 19.9%.
The compound `CC(C)(C)[C@H](NC(=O)c1ccc2ccccc2c1OCc1ccc(Br)cc1)C(=O)O` [Example 46, (S)-2-(1-((4-bromobenzyl)oxy)-2-naphthamido)-3,3-dimethylbutanoic Acid] came in with a concentration giving a half-maximal response (EC50) of 3.5 µM and an Emax of 26.9%.
The corresponding values for `C=C(C)C1CC=C(COc2c(C(=O)N[C@H](C(=O)O)C(C)(C)C)ccc3ccccc23)CC1` (stereo partly drawn) [Example 49, (2S)-3,3-dimethyl-2-(1-((4-(prop-1-en-2-yl)cyclohex-1-en-1-yl)methoxy)-2-naphthamido)butanoic Acid] are 1.5 µM and 33.5%.
The corresponding values for `CCC(C)(C)[C@H](NC(=O)c1ccc2ccccc2c1OCc1ccc(S(C)(=O)=O)cc1)C(=O)O` [Example 53, (S)-3,3-dimethyl-2-(1-((4-(methylsulfonyl)benzyl)oxy)-2-naphthamido)pentanoic Acid] are 22.9 µM and 19.8%.
The compound `CC1(C(NC(=O)c2ccc3cc(F)ccc3c2OCC2CCC(F)(F)CC2)C(=O)O)CCCCC1` (stereo not shown) [Example 54, 2-(1-((4,4-difluorocyclohexyl)methoxy)-6-fluoro-2-naphthamido)-2-(1-methylcyclohexyl)acetic Acid] displayed an EC50 of 2.4 µM and a maximal response (Emax) of 56.1%.
`CC1(C(NC(=O)c2ccc3cc(F)ccc3c2OCc2ccc(C(F)(F)F)cc2)C(=O)O)CC1` (stereo not shown) [Example 60, 2-(6-fluoro-1-((4-(trifluoromethyl)benzyl)oxy)-2-naphthamido)-2-(1-methylcyclopropyl)acetic Acid] showed an EC50 of 1.6 µM and an Emax of 90.3%.
In turn, `COc1ccc2c(OCc3ccc(SC(F)(F)F)cc3)c(C(=O)N[C@H](C(=O)O)C(C)(C)C)ccc2c1` [Example 63, (S)-2-(6-methoxy-1-((4-((trifluoromethyl)thio)benzyl)oxy)-2-naphthamido)-3,3-dimethylbutanoic Acid] showed an EC50 of 1.5 µM and an Emax of 43.6%.
As to `CC(C)(C)[C@H](NC(=O)c1ccc2ccccc2c1OCc1ccc(OC(F)(F)F)cc1)C(=O)O` [Example 65, (S)-3,3-dimethyl-2-(1-((4-(trifluoromethoxy)benzyl)oxy)-2-naphthamido)butanoic Acid], the EC50 was 4.4 µM and the maximal effect (Emax) was determined as 8.7%.
The like results for `CC(C)(C)[C@H](NC(=O)c1ccc2ccccc2c1OCc1ccc(S(C)(=O)=O)cc1)C(=O)O` [Example 66, (S)-3,3-dimethyl-2-(1-((4-(methylsulfonyl)benzyl)oxy)-2-naphthamido)butanoic Acid] were, in that order, 2.1 µM and 12.8%.
The like results for `CC(C)(C)[C@H](NC(=O)c1ccc2cc(F)ccc2c1OCC1CCC(F)(F)CC1)C(=O)O` [Example 76, (S)-2-(1-((4,4-difluorocyclohexyl)methoxy)-6-fluoro-2-naphthamido)-3,3-dimethylbutanoic Acid] were, in that order, 7.1 µM and 58.3%.
The like results for `CC(C)(C)[C@H](NC(=O)c1ccc2ccccc2c1OCc1ccc2c(c1)OCO2)C(=O)O` [Example 79, (S)-2-(1-(benzo[d][1,3]dioxol-5-ylmethoxy)-2-naphthamido)-3,3-dimethylbutanoic Acid] were, in that order, 2.5 µM and 9.1%.
Take `CCC(C)(C)[C@H](NC(=O)c1ccc2cc(OC)ccc2c1OCc1ccc(C(F)(F)F)cc1)C(=O)O` [Example 83, (S)-2-(6-methoxy-1-((4-(trifluoromethyl)benzyl)oxy)-2-naphthamido)-3,3-dimethylpentanoic Acid]: a half-maximal response (EC50) required 1.4 µM and the Emax came to 58.9%.
The corresponding values for `O=C(N[C@@H](Cc1ccccc1)C(=O)O)c1ccc2ccccc2c1OCc1ccc(C(F)(F)F)cc1` [Example 87, (1-((4-(trifluoromethyl)benzyl)oxy)-2-naphthoyl)-L-phenylalanine] are 2.1 µM and 103%.
In the case of `O=C(N[C@H](Cc1ccccc1)C(=O)O)c1ccc2ccccc2c1OCc1ccc(C(F)(F)F)cc1` [Example 89, (1-((4-(trifluoromethyl)benzyl)oxy)-2-naphthoyl)-D-phenylalanine], it took 1.4 µM to reach a half-maximal effect (EC50) and the Emax is 47.6%.
The compound `O=C(N[C@@H](Cc1ccccc1)C(=O)O)c1ccc2ccccc2c1OCc1ccc([N+](=O)[O-])cc1` [Example 91, (1-((4-nitrobenzyl)oxy)-2-naphthoyl)-L-phenylalanine] yielded an EC50 of 16.4 µM and an Emax of 44.3%.
The like results for `C=CCOc1ccc(C[C@H](NC(=O)c2ccc3ccccc3c2OCc2ccc(C(F)(F)F)cc2)C(=O)O)cc1` [Example 92, (S)-3-(4-(allyloxy)phenyl)-2-(1-((4-(trifluoromethyl)benzyl)oxy)-2-naphthamido)propanoic Acid] were, in that order, 14 µM and 52.6%.
For the compound `O=C(N[C@@H](Cc1ccccc1)C(=O)O)c1ccc2ccccc2c1OCc1ccc(Cl)cc1` [Example 98, (1-((4-chlorobenzyl)oxy)-2-naphthoyl)-L-phenylalanine], the Emax was 6%.
The compound `COC(=O)[C@H](Cc1ccccc1)NC(=O)c1ccc2ccccc2c1OCc1ccc(Cl)c(Cl)c1` [Example 101, Methyl (1-((3,4-dichlorobenzyl)oxy)-2-naphthoyl)-L-phenylalaninate] yielded an EC50 of 6.7 µM and a maximal effect (Emax) of 79.1%.
The like results for `O=C(N[C@@H](Cc1ccccc1)C(=O)O)c1ccc2ccccc2c1OCc1cccc2c1OC(F)(F)O2` [Example 102, (1-((2,2-difluorobenzo[d][1,3]dioxol-4-yl)methoxy)-2-naphthoyl)-L-phenylalanine] were, in that order, 8 µM and 33.7%.
With `O=C(N[C@@H](Cc1ccncc1)C(=O)O)c1ccc2ccccc2c1OCc1ccc(C(F)(F)F)cc1` [Example 103, (S)-3-(pyridin-4-yl)-2-(1-((4-(trifluoromethyl)benzyl)oxy)-2-naphthamido)propanoic Acid], the Emax was 22.4%.

The values above are taken from patent US12630498B2 (Genzyme Corporation, priority 2019, dated 2026).
